Measured values as given in patent publication US11971383B1, “Enhanced 3D porous architectured electroactive devices via impregnated porogens” (Iowa State University Research Foundation, Inc., priority 2018, dated 2024).

Molecular target: T1, Acetylcholinesterase (ACHE) (Electrophorus electricus, UniProt O42275)
T1 construct: purchased Sigma Aldrich
Assay: ACHE biosensor inhibition versus incubation time (decrease in amperometric oxidation current)
Assay type: biochemical
Settings: 1 μM paraoxon, 5 mM ACTH, 400 mV
Description: Sodium chloride (NaCl) was purchased from Sigma-Aldrich, ground using mortar and pestle, and filtered into different sizes with 8 in wire cloth sieves. Acetylcholinesterase (ACHE) from Electrophorus electricus was purchased from Sigma Aldrich as lyophilized powder (200-1000 units per mg) and was used without any further purification. ACHE ink aliquots were made by dissolving the enzyme (2 mg) in 1 mL of 50% glycerol and 50% 1× phosphate-buffer solution (0.1 M PBS, pH 7.0), aliquoted into 25 μL, and stored in a −80° C. freezer until use. […]. All other chemicals and solvents were purchased from Sigma-Aldrich and were used without any other purification unless otherwise stated. Water was filtered through a B-Pure Water Purification system (resistivity, […]).
SIIML electrodes were functionalized with ACHE using 1-ethyl-3-(3-dimethylaminopropyl) carbodiimide and N-hydroxysuccinimide (EDC/NHS) chemistry, which facilitated the functionalization of carboxyl groups to the amines within the ACHE enzyme.^39 In summary, the CO2 laser annealed SIIML electrodes were dipped in a solution of EDC/NHS mixture (50 mM EDC, 50 mM NHS) and incubated for 30 min on a tilter mixer. The electrodes were then rinsed with 1×PBS, excess water was blown off but not completely dried as the surface remained still “wetted”, this allowed for easier pipetting onto the slightly hydrophobic graphene surface. […]

T1 sequence (O42275 24-633): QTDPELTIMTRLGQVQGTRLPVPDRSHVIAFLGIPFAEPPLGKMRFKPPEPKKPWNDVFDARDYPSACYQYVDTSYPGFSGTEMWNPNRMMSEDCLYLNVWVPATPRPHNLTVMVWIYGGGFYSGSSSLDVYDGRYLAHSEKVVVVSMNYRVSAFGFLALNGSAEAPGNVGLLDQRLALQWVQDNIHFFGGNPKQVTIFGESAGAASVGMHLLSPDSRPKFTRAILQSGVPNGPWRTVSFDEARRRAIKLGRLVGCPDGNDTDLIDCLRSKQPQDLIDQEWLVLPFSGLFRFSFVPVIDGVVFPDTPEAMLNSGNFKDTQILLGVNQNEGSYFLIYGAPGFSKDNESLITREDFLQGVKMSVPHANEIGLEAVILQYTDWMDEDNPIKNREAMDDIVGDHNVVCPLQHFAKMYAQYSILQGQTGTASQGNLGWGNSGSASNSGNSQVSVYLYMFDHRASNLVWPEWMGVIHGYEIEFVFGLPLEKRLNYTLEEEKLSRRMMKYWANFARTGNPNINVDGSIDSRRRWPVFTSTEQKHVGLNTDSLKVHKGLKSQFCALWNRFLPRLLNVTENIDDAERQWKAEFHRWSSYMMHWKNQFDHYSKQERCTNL

## CCOP(=O)(OCC)Oc1ccc([N+](=O)[O-])cc1 [paraoxon]
After 100 seconds incubation, large standard deviations
  inhibition of the sensor (percent of ACHE inhibited): roughly 50%
After 500 seconds incubation, low standard deviation
  inhibition of the sensor (percent of ACHE inhibited): about 90%
